{"source": "patent US20250082651A1", "about": "“GANAXOLONE FOR USE IN TREATING GENETIC EPILEPTIC DISORDERS” (Marinus Pharmaceuticals, Inc., priority 2017, published 2025)", "key": {"female rats": {"system": "female rats", "assay": "Pulmonary safety pharmacology in female rats", "assay_type": "in vivo, rat", "settings": "doses up to 40 mg/kg"}, "[1]": {"assay": "Solubility of ganaxolone in solvents", "assay_type": "physicochemical", "description": "Ganaxolone is insoluble in water. Its solubilities in 95% alcohol, propylene glycol and polyethylene glycol are 13 mg/mL, 3.5 mg/mL and 3.1 mg/mL, respectively.\nThe pregnenolone neurosteroid (e.g., ganaxolone) formulations suitable for use in the present invention may also be administered parenterally. In such embodiments, the formulations are suitable for intramuscular, subcutaneous, or intravenous injection may comprise physiologically acceptable sterile aqueous or non-aqueous solutions, dispersions, suspensions or emulsions, and sterile powders for reconstitution into sterile injectable solutions or dispersions. Examples of suitable aqueous and non-aqueous carriers, diluents, solvents, or vehicles including water, ethanol, polyols (propylene glycol, polyethylene-glycol, glycerol, cremophor and the like), suitable mixtures thereof, vegetable oils (such as olive oil) and injectable organic esters such as ethyl oleate. Additionally, Ganaxolone can be dissolved at concentrations of >1 mg/ml using water soluble beta cyclodextrins (e.g. beta-sulfobutyl-cyclodextrin and 2-hydroxypropylbetacyclodextrin). A particularly suitable cyclodextrin is a substituted-β-cyclodextrin is CAPTISOL® (cyckodextrin). […]"}, "[2]": {"assay": "Integrated adverse events from placebo controlled studies of ganaxolone", "assay_type": "in vivo, human", "settings": "Ganaxolone n = 750, placebo controlled studies", "excerpt": "As noted in Table 6, across multiple placebo controlled studies of ganaxolone across multiple indications including epilepsy, few side effects are reported that occur at a rate higher than those reported in placebo-treated subjects. These side effects are generally mild and have always been reversible. […] Four of the 7 children enrolled into this study remain on ganaxolone. Adverse events in this study are similar to those reported for all placebo controlled studies completed to date as summarized in Table 6 below."}, "rats": {"system": "rats", "assay": "Oral and IV single- and repeat-dose toxicology studies", "assay_type": "in vivo, rat"}, "[3]": {"system": "children with rare genetic epilepsies", "assay": "Phase 2 open-label trial, safety, tolerability and disposition", "assay_type": "in vivo, human", "excerpt": "Example 3 concerns a Phase 2 Multicenter, Open-Label Proof-of-Concept Trial of ganaxolone (GNX) in cohorts of children having genetic epilepsies (PCDH19, CDKL5 LGS, and CSWS) (ClinicalTrials.gov Identifier: NCT02358538). There were 11 female children with PCDH19 epilepsy between 5-16 years old with a confirmed genetic mutation. There were 6 female and 1 male children with confirmed genetic mutations in the CDKL5 cohort. There were 10 children in the Lennox Gastaut Syndrome cohort. Two children with CSWS were enrolled into the study. The study was conducted with 12 weeks baseline, and up to 26 weeks of treatment followed by a 52 week open label treatment. The primary efficacy was the percentage change in seizure frequency per 28 days relative to baseline calculated using daily seizure diary. [Time Frame: 26 weeks]. Secondary Outcome Measures were: Clinician Global Impression of Change score as assessed by questionnaire. [Time Frame: 26 Weeks]; Patient Global Impression of Change score as assessed by questionnaire. [Time Frame: 26 Weeks]; Evaluation of safety and tolerability of open-label ganaxolone as adjunctive therapy for uncontrolled seizures in children with rare genetic epilepsies, based on adverse event log and other clinical safety assessments. [Time Frame: 26 weeks]; Responder rates [Time Frame: 26 weeks]; and Seizure free days [Time Frame: 26 weeks].\nFollowing screening and baseline evaluations, consenting patients enrolled into a 26-week study during which investigators were allowed to flexibly dose ganaxolone up to a dose of 1,800 mg/day for patients whose body weight was >30 kg, or up to 63 mg/kg/day for patients whose body-weight was <30 kg. The primary efficacy measure is % change from baseline in the 28-day seizure frequency count. Safety and tolerability were within the secondary objectives of the study.\nA total of 30 subjects were enrolled in the study: one-half (15 subjects) completed the 26-week open-label treatment period and one-half (15 subjects) discontinued the study. In total, the main reasons for study discontinuation in the safety population were lack of efficacy (8 subjects [26.7%]), and AE or SAE (4 subjects [13.3%)]). All 30 (100.0%) subjects were in the safety and MITT population.\nGanaxolone was generally safe and well-tolerated in subjects with epilepsy disorders. […] In the CDD cohort, 6 subjects (85.7%) experienced a total of 45 TEAEs; in the CSWS cohort, 1 subject (50.0%) had 7 TEAEs; in the LGS cohort, 7 subjects (70.0%) had 24 TEAEs; and in the PCDH19 cohort, 11 subjects (100.0%) had 95 TEAEs.\nNo deaths were reported in this study."}}}
{"molecule": "CC(=O)[C@H]1CC[C@H]2[C@@H]3CC[C@H]4C[C@](C)(O)CC[C@]4(C)[C@H]3CC[C@]12C", "note": "[Ganaxolone, 3α-hydroxy-3β-methyl-5α-pregnan-20-one]", "values": [{"measurement": "Pulmonary effects", "setting": "female rats", "result": "No pulmonary effects"}, {"measurement": "Dissolved concentration", "setting": "[1]; using water soluble beta cyclodextrins", "result": "> 1", "unit": "mg/mL"}, {"measurement": "Solubility in water", "setting": "[1]; water", "result": "insoluble"}, {"measurement": "Adverse event: Dizziness", "setting": "[2]", "result": "95 (13%) n (%)"}, {"measurement": "Adverse event: Fatigue", "setting": "[2]", "result": "51 (7%) n (%)"}, {"measurement": "Adverse event: Headache", "setting": "[2]", "result": "37 (5%) n (%)"}, {"measurement": "Adverse event: Somnolence", "setting": "[2]", "result": "134 (18%) n (%)"}, {"measurement": "Most common effect in toxicology studies", "setting": "rats; oral and IV programmes", "result": "dose-related sedation"}, {"measurement": "Findings correlated to hepatic enzyme induction", "setting": "rats; rats, 6-month study, more pronounced in females", "result": "increased liver weights and dose related hepatocellular hypertrophy"}, {"measurement": "Total number of TEAEs", "setting": "[3]; CDD cohort", "result": 45, "unit": "TEAEs"}, {"measurement": "Subjects experiencing TEAEs", "setting": "[3]; CDD cohort, safety population", "result": 85.7, "unit": "%"}, {"measurement": "Discontinued during the 26-week open-label period, reason AE or SAE", "setting": "[3]; CDKL5 N = 7", "result": "0 n (%)"}, {"measurement": "Discontinued during the 26-week open-label period, reason lack of efficacy", "setting": "[3]; CDKL5 N = 7", "result": "1 n (%)"}, {"measurement": "Discontinued during the 26-week open-label period, reason AE or SAE", "setting": "[3]; CSWS N = 2", "result": "1 n (%)"}, {"measurement": "Discontinued during the 26-week open-label period, reason lack of efficacy", "setting": "[3]; CSWS N = 2", "result": "1 n (%)"}, {"measurement": "Subjects experiencing TEAEs", "setting": "[3]; CSWS cohort", "result": 50.0, "unit": "%"}, {"measurement": "Total number of TEAEs", "setting": "[3]; CSWS cohort", "result": 7, "unit": "TEAEs"}, {"measurement": "Discontinued during the 26-week open-label period, reason AE or SAE", "setting": "[3]; LGS N = 10", "result": "1 (10.0) n (%)"}, {"measurement": "Discontinued during the 26-week open-label period, reason lack of efficacy", "setting": "[3]; LGS N = 10", "result": "3 (30.0) n (%)"}, {"measurement": "Subjects experiencing TEAEs", "setting": "[3]; LGS cohort", "result": 70.0, "unit": "%"}, {"measurement": "Total number of TEAEs", "setting": "[3]; LGS cohort", "result": 24, "unit": "TEAEs"}, {"measurement": "Adverse event: Abdominal pain", "setting": "[3]; PCDH19 N = 11", "result": "2 (18.2) N (%)"}, {"measurement": "Adverse event: Fatigue", "setting": "[3]; PCDH19 N = 11", "result": "3 (27.3) N (%)"}, {"measurement": "Adverse event: Headache", "setting": "[3]; PCDH19 N = 11", "result": "3 (27.3) N (%)"}, {"measurement": "Adverse event: Pyrexia", "setting": "[3]; PCDH19 N = 11", "result": "2 (18.2) N (%)"}, {"measurement": "Adverse event: Seizure", "setting": "[3]; PCDH19 N = 11", "result": "3 (27.3) N (%)"}, {"measurement": "Adverse event: Somnolence", "setting": "[3]; PCDH19 N = 11", "result": "4 (36.4) N (%)"}, {"measurement": "Adverse event: Vomiting", "setting": "[3]; PCDH19 N = 11", "result": "2 (18.2) N (%)"}, {"measurement": "Discontinued during the 26-week open-label period, reason AE or SAE", "setting": "[3]; PCDH19 N = 11", "result": "2 n (%)"}, {"measurement": "Discontinued during the 26-week open-label period, reason lack of efficacy", "setting": "[3]; PCDH19 N = 11", "result": "3 n (%)"}, {"measurement": "Subjects experiencing TEAEs", "setting": "[3]; PCDH19 cohort", "result": 100.0, "unit": "%"}, {"measurement": "Total number of TEAEs", "setting": "[3]; PCDH19 cohort", "result": 95, "unit": "TEAEs"}, {"measurement": "Discontinued during the 26-week open-label period, reason AE or SAE", "setting": "[3]; Total N = 30", "result": "4 n (%)"}, {"measurement": "Discontinued during the 26-week open-label period, reason lack of efficacy", "setting": "[3]; Total N = 30", "result": "8 n (%)"}, {"measurement": "Deaths", "setting": "[3]; all cohorts", "result": "No deaths"}, {"measurement": "Subjects experiencing SAEs", "setting": "[3]; all cohorts, N=30", "result": 20.0, "unit": "%"}, {"measurement": "Subjects overall experiencing TEAEs", "setting": "[3]; all cohorts, N=30", "result": 83.3, "unit": "%"}, {"measurement": "Subjects with a TEAE that led to discontinuation of study drug", "setting": "[3]; all cohorts, N=30", "result": 13.3, "unit": "%"}, {"measurement": "Subjects with mild TEAEs", "setting": "[3]; all cohorts, N=30", "result": 23.3, "unit": "%"}, {"measurement": "Subjects with moderate TEAEs", "setting": "[3]; all cohorts, N=30", "result": 46.7, "unit": "%"}, {"measurement": "Subjects with severe TEAEs", "setting": "[3]; all cohorts, N=30", "result": 13.3, "unit": "%"}, {"measurement": "Subjects with treatment-related TEAEs", "setting": "[3]; all cohorts, N=30", "result": 53.3, "unit": "%"}]}
